Results taken from ChEMBL document CHEMBL1201862, “PubChem BioAssay data set” (2004).
Activity calls are given as the source filed them.

How the values were obtained:
[1] = target: T1, Endoribonuclease toxin MazF (Escherichia coli K-12, UniProt P0AE70); experiment: substrate-only fluorescence increase artefacts – biochemical, single-stranded RNase substrate, counter-screen for MazEF activator project, dose response (AID 588502); type: functional
T1 sequence (P0AE70 whole entry): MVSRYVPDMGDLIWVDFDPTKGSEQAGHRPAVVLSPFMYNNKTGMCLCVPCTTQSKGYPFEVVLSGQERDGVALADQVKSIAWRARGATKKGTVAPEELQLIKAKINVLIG

[2] = target: Cytochrome P450 2C9 (Homo sapiens, UniProt P11712)
[3] = target: T1, Endoribonuclease toxin MazF; experiment: activation of MazEF endoribonuclease cleavage – biochemical, fluorescence, single-stranded RNA substrate, uHTS hits, dose response (AID 588481); type: functional
[4] = target: T2, Sentrin-specific protease 8 (Homo sapiens, UniProt Q96LD8); type: functional;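 further: luminescence read-out of SENP8 inhibition, dose-response confirmation following an ultra-high-throughput screen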
T2 sequence (Q96LD8 whole entry): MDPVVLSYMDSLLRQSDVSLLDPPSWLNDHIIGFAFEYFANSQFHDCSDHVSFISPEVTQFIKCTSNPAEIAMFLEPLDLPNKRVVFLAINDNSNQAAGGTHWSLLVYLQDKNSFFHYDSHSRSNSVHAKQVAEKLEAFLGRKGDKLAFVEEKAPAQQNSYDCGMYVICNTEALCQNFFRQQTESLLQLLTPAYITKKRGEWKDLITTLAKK

[5] = target: T3, Protein skinhead-1 (Caenorhabditis elegans, UniProt P34707); type: functional
T3 sequence (P34707 whole entry): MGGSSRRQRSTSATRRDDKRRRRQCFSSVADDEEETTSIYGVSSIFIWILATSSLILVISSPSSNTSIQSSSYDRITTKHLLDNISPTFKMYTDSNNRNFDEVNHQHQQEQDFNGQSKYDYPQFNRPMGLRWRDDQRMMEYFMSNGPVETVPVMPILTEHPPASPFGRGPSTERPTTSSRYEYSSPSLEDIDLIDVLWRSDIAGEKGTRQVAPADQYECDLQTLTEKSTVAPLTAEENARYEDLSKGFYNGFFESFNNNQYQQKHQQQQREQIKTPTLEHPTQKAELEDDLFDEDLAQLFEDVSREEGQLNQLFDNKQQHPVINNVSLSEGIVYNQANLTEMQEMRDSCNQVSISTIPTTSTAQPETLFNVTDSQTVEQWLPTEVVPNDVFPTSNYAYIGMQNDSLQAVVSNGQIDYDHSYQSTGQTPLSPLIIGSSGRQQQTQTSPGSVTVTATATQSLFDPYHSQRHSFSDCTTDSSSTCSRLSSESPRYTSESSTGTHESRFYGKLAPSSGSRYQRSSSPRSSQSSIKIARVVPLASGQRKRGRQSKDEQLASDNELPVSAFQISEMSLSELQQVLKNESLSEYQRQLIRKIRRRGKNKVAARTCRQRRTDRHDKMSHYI

[6] = target: T4, Caspase-3 (Homo sapiens, UniProt P42574); type: functional;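 further: Dose-response selectivity test against caspase-3 for candidate inhibitors of sentrin-specific proteases (SENPs)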
T4 sequence (P42574 whole entry): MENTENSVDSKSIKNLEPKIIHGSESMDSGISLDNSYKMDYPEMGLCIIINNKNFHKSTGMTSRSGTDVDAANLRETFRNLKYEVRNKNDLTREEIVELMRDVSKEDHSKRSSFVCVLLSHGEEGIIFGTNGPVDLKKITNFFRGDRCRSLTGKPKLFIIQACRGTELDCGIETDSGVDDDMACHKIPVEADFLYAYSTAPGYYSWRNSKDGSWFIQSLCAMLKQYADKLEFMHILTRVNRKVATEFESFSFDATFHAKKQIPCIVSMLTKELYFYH

[7] = target: T5, Sentrin-specific protease 6 (Homo sapiens, UniProt Q9GZR1); type: functional;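 further: Luminescence-based dose-response confirmatory assay of SENP6 inhibition, following up an ultra-high-throughput screen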
T5 sequence (Q9GZR1 whole entry): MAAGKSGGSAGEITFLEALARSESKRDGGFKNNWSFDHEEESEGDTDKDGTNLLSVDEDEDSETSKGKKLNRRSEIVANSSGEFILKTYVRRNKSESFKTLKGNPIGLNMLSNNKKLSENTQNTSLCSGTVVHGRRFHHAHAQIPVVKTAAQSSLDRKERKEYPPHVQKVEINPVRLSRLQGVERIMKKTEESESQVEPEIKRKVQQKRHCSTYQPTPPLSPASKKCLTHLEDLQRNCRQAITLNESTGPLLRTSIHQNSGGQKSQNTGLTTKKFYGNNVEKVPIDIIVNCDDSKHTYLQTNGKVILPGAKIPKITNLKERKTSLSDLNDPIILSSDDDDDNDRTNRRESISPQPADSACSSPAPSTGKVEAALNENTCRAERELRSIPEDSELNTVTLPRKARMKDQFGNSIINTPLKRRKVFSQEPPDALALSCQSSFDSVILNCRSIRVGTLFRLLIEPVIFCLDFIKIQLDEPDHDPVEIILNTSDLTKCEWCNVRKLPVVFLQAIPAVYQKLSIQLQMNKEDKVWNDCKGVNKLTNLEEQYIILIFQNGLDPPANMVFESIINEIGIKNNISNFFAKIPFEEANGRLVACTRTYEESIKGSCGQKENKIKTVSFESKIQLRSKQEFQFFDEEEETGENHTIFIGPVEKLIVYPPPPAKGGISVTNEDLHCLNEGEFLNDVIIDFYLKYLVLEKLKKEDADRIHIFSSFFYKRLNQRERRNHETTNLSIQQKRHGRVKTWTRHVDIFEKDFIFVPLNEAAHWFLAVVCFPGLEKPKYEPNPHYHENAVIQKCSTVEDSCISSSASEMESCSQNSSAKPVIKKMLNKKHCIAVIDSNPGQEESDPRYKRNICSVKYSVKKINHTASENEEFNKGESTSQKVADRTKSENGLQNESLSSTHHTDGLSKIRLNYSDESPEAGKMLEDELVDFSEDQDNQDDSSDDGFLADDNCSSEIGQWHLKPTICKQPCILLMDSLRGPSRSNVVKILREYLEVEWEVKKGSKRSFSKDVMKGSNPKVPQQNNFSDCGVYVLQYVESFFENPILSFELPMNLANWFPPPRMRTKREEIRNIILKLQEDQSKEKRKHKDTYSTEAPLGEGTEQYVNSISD

[8] = target: T6, Sentrin-specific protease 7 (Homo sapiens, UniProt Q9BQF6); type: functional;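 further: Luminescence-based dose-response confirmation of ultra-high-throughput screening hits, measuring inhibition of SENP7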
T6 sequence (Q9BQF6 whole entry): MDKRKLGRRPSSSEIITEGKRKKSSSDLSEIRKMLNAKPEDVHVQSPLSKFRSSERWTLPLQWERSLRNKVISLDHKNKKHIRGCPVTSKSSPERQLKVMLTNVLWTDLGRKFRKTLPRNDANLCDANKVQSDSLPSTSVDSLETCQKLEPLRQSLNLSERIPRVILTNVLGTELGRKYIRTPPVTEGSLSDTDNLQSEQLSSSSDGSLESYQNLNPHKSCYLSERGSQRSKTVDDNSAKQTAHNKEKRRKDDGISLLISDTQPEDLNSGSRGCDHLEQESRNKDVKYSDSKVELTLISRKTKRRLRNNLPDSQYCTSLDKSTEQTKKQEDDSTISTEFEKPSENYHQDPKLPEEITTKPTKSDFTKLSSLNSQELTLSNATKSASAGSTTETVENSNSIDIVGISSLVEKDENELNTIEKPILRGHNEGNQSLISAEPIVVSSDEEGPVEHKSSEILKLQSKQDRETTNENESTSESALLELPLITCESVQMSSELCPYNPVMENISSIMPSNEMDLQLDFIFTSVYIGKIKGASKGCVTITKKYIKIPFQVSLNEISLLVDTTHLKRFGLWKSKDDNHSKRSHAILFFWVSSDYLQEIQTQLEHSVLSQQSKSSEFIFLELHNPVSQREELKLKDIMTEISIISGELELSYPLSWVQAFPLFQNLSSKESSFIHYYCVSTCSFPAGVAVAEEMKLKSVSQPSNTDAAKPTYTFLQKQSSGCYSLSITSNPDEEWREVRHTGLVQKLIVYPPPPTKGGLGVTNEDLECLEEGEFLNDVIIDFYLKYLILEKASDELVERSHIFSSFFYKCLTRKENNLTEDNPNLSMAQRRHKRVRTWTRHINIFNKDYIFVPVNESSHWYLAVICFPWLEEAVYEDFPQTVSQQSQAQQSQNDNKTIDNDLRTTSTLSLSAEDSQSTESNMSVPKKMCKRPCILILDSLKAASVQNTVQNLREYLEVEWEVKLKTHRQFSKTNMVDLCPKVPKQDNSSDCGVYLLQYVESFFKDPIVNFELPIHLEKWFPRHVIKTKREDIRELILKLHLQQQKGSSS

[9] = alpha-synuclein stem-loop luciferase translation blockers – H4 neuroglioma cells, luminescence, confirmation (AID 1988); type: functional, cell-based
[10] = tested on: A-375; experiment: proliferation inhibition in MITF-low A375 cells – cell-based, cherry-pick samples, set 2, counter-screen for MITF modulator project, dose response (AID 540335); type: functional; settings: Homo sapiens
[11] = luciferase reporter signal suppression in cells – H4 neuroglioma cells, luminescence, dose response (AID 1990); type: functional, cell-based
[12] = target: T7, Microphthalmia-associated transcription factor (Homo sapiens, UniProt O75030); experiment: reducers of TRPM1 reporter luminescence, concentration series – cell-based, SK-MEL-5, cherry-picked, set 3, MITF inhibitor project, dose response (AID 493073); type: functional;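 further: SK-MEL-5 melanoma cells with luciferase driven by the MITF target TRPM1 promoter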
T7 sequence (O75030 whole entry): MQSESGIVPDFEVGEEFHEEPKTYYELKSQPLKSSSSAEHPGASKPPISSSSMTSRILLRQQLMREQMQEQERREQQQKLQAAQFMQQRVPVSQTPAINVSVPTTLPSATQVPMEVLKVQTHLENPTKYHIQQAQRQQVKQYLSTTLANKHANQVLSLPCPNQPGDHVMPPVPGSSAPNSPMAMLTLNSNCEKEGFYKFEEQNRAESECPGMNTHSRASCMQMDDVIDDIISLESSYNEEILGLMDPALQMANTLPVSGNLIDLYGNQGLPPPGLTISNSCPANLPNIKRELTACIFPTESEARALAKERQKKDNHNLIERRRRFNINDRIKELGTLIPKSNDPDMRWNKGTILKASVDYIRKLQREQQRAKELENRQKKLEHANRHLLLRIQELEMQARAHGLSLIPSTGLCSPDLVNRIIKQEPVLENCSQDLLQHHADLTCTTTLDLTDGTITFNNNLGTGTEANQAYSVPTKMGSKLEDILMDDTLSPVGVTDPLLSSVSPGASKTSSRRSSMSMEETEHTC

[13] = Luminescence Cell-Based Dose Response HTS to Identify Inhibitors of 5'UTR Stem-Loop Driven Prion Protein mRNA Translation in H4 Neuroglioblastoma Cells. [Related pubchem assays: 1827 (Project Summary), 1813 (Primary HTS)]; type: functional
[14] = tested on: INS1; experiment: INS-1E survival protection against cytokine death – cell-based, luminescence, retest, dose response (AID 449756); type: functional; settings: Rattus norvegicus;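 further: cell death triggered by IL-1 beta plus TNF-alpha plus IFN-gamma mixture; protective hits raise ATP signal compared with cytokine alone wells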

Chain of Cytochrome P450 2C9 (P11712 whole entry): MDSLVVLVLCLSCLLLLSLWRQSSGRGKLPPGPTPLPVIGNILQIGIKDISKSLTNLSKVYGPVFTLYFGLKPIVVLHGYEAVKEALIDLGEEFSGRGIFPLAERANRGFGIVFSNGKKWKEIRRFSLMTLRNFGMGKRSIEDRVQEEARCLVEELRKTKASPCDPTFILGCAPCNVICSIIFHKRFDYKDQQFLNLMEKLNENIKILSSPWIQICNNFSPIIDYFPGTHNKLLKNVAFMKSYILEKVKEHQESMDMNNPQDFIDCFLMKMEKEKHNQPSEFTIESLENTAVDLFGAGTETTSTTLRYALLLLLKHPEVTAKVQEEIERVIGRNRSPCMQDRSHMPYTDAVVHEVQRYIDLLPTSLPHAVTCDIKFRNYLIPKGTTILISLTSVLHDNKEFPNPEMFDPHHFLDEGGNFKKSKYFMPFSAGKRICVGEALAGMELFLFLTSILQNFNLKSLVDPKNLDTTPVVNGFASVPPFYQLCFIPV

SMILES: COc1cc(/C=N/NC(=O)c2cccnc2)ccc1OC(=O)c1ccc2c(c1)OCO2
- EC50 [1]: > 99 µM (inactive)
- AC50 [2]: 7.94 µM (inconclusive)
- EC50 [3]: > 99 µM (inactive)

SMILES: FC(F)(F)c1ccnc(Oc2ccc(C3=NCCS3)cc2)c1
- IC50 [4]: 5.09 µM (active)
- IC50 [5]: 94.5 µM (inactive)
- IC50 [6]: 11.5 µM (active)
- IC50 [7]: 4.94 µM (active)
- IC50 [8]: 2.36 µM (active)

SMILES: Cc1nnc2nc(SCC(=O)NCCC3=CCCCC3)n(-c3ccc(Br)cc3)c(N)c1-2
- EC50 [9]: 8.54 µM (active)
- AC50 [10]: 26.9 µM (active)
- EC50 [11]: 9.9 µM (active)
- AC50 [12]: 2.46 µM (active)
- EC50 [13]: 15.4 µM (active)
- AC50 [14]: 5.09 µM (active)

SMILES: O=C(Nc1cc[n+](-c2nc3ccccc3nc2[N-]S(=O)(=O)c2ccccc2)cc1)c1cccs1
- EC50 [1]: > 99 µM (inactive)
- EC50 [3]: > 99 µM (inactive)

SMILES: CC(C)(C)NC(=O)COc1ccc(-c2ccccc2)cc1
- IC50 [4]: 70.7 µM (active)
- IC50 [6]: 24.6 µM (active)
- IC50 [7]: 52.6 µM (active)
- IC50 [8]: 12.3 µM (active)

SMILES: CCOC(=O)c1sc(-c2ccc(OC)cc2)cc1N
- IC50 [4]: 10.7 µM (active)
- IC50 [6]: 37.5 µM (active)
- IC50 [7]: 12.1 µM (active)
- IC50 [8]: 7.33 µM (active)
